Source: patent publication US12215389B2, “Compositions for detecting epigenetic modifications” (EXACT SCIENCES CORPORATION, priority 2007, dated 2025)

System: methylated gene promoters in fecal DNA
Experiment: Real-time MSP on stool (fecal) DNA
Parameters: species or system human
Settings: fecal samples; for Sens adenoma: 13 samples; for Sens CRC: 15 samples; for Spec: 19 samples
Source text: A standardized multicenter screening trial (The Netherlands) was initiated in 2006. In this trial, non symptomatic subjects aged 50 or above are screened with colonoscopy, FOBT and real-time MSP using DNA from stool and blood. In addition, prospectively collected stool samples from multiple centers (Germany and The Netherlands) were used. In these trials, symptomatic patients, attending a Gastroenterology clinic and ultimately diagnosed with CRC, provided a stool sample for use in real-time MSP. From the ongoing trials 147 stool samples were available for the present study. 3 main categories of stool samples were used: 67 samples with no suspicious findings, 58 adenomas and 22 samples from patients covering all stages of CRC, with 90% representing early stage disease.
After defecation in a special bucket, patients added 250 ml of stool homogenization buffer (Amresco, Solon, Ohio, USA) to the sample. Samples were shipped to the laboratory and further processed within 72 hours after defecation. Stool homogenization buffer was added to a ratio 1:7, and the samples were homogenized and aliquoted in portions of 32 ml.
Single aliquots (32 ml containing the equivalent of 4 g of stool) were centrifuged for 5 minutes at 2540 rcf at 20° C. The supernatant was retained and centrifuged a second time (10 minutes at 16500 rcf at 4° C.). 22 ml of the supernatant obtained following the second centrifugation step was incubated with 5 μl Rnase A for 60 minutes at 37° C. Total DNA was then SodiumAcetate (pH 5.2)-isopropanol precipitated and washed with 70% ethanol. The DNA was resuspended in 4 ml 1×TE (pH 7.4). 400 μl 10× buffer (240 mM EDTA (pH=8.0), 750 mM NaC), 400 μl 10% SDS, and 20 μl Proteinase K (20 mg/ml) was added and the samples were incubated at 48° C. overnight at constant shaking (225 RPM). After centrifugation (3000 RCF for 30 seconds at room temperature), 5 ml of Phenol:Chloroform:Isoamylalcohol (25:24:1, v/v:Invitrogen) was added and incubated for 10 minutes at room temperature shaking at 225 RPM and centrifuged for 5 minutes at 3000 RCF. The aqueous layer was transferred to a new tube containing 5 ml of Phenol:Chloroform:Isoamylalcohol. Again, the samples were incubated for 10 minutes at room temperature shaking at 225 RPM and centrifuged for 5 minutes at 3000 RCF at room temperature. The aqueous layer was transferred to a new tube and DNA was precipitated by adding 500 μl 7.5 M Ammonium Acetate, 5 μl glycogen and 10 ml of cold 100% Ethanol (−20° C.), further incubated at −20° C. for at least 1 hour and centrifuged at 15000 RCF for 30 minutes at 4° C. Pellets were washed with 3.5 ml freshly prepared 70% Ethanol and air dried. Pellets were finally resuspended in 2 ml of LoTE pH 8.0 and stored at −80° C., until further processing.
An upscaled DNA modification step was applied to 32 μg of the obtained DNA. 16 Aliquots of 2 μg of DNA were subjected to bisulfite modification in 96-wells format on a pipetting robot (Tecan), using the EZ-96DNA Methylation kit (Zymo Research), according to the manufacturer's protocol. Basically, aliquots of 45 μl were mixed with 5 μl of M-Dilution Buffer and incubated at 37° C. for 15 minutes shaking at 1100 rpm. Then 100 μl of the diluted CT Conversion Reagent was added and samples were incubated at 70° C. for 3 hours, shaking at 1100 rpm in the dark. After conversion, the samples were desalted by incubation on ice for 10 minutes and addition of 400 μl of M-Binding buffer. The samples were loaded on a Zymo-Spin I Column in a collection tube and after centrifugation washed with 200 μl of M-Wash Buffer. 200 μl of M-Desulphonation Buffer was put onto the column and incubated at room temperature for 15 minutes. After centrifugation of the columns, they were washed twice with 200 μl of M-Wash Buffer. Finally, the DNA was washed from the column in 50 μl Tris-HCl 1 mM pH8.0 and stored at −80° C., until further processing.

Q: With “SFRP1 (DNA TGTAGTTTTCGGAGTTAGTGTCGCGC; listed as DNA, chemistry not given here)” as the substance, how does the Sens adenoma read?
A: The Sens adenoma was 8%.

Q: What about the “Sens CRC” value of the same substance?
A: The value was 67%.

Q: And the Spec?
A: The Spec was 100%.

Q: What does the source list for “GATA5 (DNA AGTTCGTTTTTAGGTTAGTTTTCGGC; listed as DNA, chemistry not given here)”?
A: Sens adenoma: 0%; Sens CRC: 27%; Spec: 100%
